Like-named read-outs stand apart in the source and are kept apart here.
How the values were obtained:
[1] = target: T1, WT hDAT (Homo sapiens, UniProt Q01959); test: Kinetic analysis of [3H]DA uptake in the presence or absence of PMA or BIM; assay type: cell-based; settings: 30 min preincubation
T1 construct: Synthetic cDNA encoding hDAT subcloned into pcDNA3.1+; expressed in transfected cells; host or cells: PC12 cells (ATCC CRL-1721), transient transfection with pcDNA3.1+ plasmid, Lipofectamine 2000
T1 sequence (Q01959 whole entry): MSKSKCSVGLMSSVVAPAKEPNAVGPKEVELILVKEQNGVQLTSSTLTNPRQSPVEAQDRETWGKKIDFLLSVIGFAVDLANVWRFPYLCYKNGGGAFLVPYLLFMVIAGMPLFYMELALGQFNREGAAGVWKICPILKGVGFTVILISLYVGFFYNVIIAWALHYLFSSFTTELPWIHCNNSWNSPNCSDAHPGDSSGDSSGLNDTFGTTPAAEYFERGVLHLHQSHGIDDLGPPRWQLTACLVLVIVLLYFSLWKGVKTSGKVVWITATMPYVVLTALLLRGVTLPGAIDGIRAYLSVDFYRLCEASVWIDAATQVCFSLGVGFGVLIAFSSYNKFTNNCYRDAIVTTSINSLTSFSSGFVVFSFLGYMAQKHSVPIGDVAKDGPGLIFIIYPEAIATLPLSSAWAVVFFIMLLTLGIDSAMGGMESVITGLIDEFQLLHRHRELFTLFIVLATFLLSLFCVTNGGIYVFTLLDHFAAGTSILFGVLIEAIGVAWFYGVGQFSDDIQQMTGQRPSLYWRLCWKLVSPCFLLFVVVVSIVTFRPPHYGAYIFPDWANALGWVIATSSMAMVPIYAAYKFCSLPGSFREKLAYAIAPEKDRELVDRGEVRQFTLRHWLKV
Description: (§1) To determine whether H547A-induced increase in Vmax was mediated by a phosphorylation-dependent mechanism, kinetic analysis of [^3H]DA uptake was measured in the presence or absence of PKC activator PMA (Tocris, Bristol, UK) or PKC inhibitor BIM (Sigma-Aldrich, St. Louis, MO). The concentrations were chosen based on previous reports. In brief, intact PC12 cells transfected with WT or H547A-hDAT were preincubated with or without PMA or BIM (1 μM, final concentration) for 30 min at 37 °C or room temperature and then incubated with six concentrations of mixed [^3H]DA for 8 min as described above. Nonspecific uptake of each concentration of [^3H]DA (in the presence of 10 μM nomifensine) was subtracted from total uptake to calculate specific DAT-mediated uptake.

[2] = target: T1, WT hDAT; test: Inhibition of [3H]DA uptake in intact transfected PC12 cells; assay type: cell-based
Description: (§2) Cells were lysed in 500 μl of 1% SDS for an hour and radioactivity was measured using a liquid scintillation counter (model Tri-Carb 2900TR; PerkinElmer Life and Analytical Sciences, Waltham, MA). Vmax and Km were determined using Prism 5.0 (GraphPad Software Inc., San Diego, CA).
(§3) Results are presented as mean ± SEM, and n represents the number of independent experiments for each experiment group. Kinetic parameters (Vmax, Km, Bmax, and Kd) were determined from saturation curves by nonlinear regression analysis using a one-site model with variable slope. […] For experiments involving comparisons between unpaired samples, unpaired Student’s t test was used to assess any difference in the kinetic parameters (Vmax, Km, Bmax, Kd or IC50) between WT and mutant; log-transformed values of IC50, Km or Kd were used for the statistical comparisons. Significant differences between samples were analyzed with separate ANOVAs followed by post-hoc tests, as indicated in the results Section of each experiment. All statistical analyses were performed using IBM SPSS Statistics version 20, and differences were considered significant at p < 0.05.

[3] = target: T2, H547D-hDAT (Homo sapiens, UniProt Q01959, H547D); test: as above; assay type: cell-based
T2 construct: Synthetic cDNA encoding hDAT subcloned into pcDNA3.1+; expressed in transfected cells; host or cells: PC12 cells (ATCC CRL-1721), transient transfection with pcDNA3.1+ plasmid
T2 sequence (Q01959 whole entry H547D): as the sequence (Q01959 whole entry) above, with H547D counted along it
Description: as §2, §3

[4] = target: T3, H547A-hDAT (Homo sapiens, UniProt Q01959, H547A); test: Competitive inhibition / modulation of [3H]WIN 35,428 binding in intact transfected PC12 cells; settings: Zn2+ 100 μM
T3 construct: Synthetic cDNA encoding hDAT subcloned into pcDNA3.1+; expressed in transfected cells; host or cells: PC12 cells (ATCC CRL-1721), transient transfection with pcDNA3.1+ plasmid
T3 sequence (Q01959 whole entry H547A): as the sequence (Q01959 whole entry) above, with H547A counted along it

[5] = target: T3, H547A-hDAT; assay type: cell-based
Description: as §2, §3

[6] = target: T1, WT hDAT; test: Competitive inhibition / modulation of [3H]WIN 35,428 binding in intact transfected PC12 cells
[7] = target: T3, H547A-hDAT; test: Kinetic analysis of [3H]DA uptake in the presence or absence of PMA or BIM; assay type: cell-based; settings: 1 μM PMA, 30 min preincubation, 37 °C
Description: as §1

Compound: CN(C)CCCn1cc(C2=C(c3c[nH]c4ccccc34)C(=O)NC2=O)c2ccccc21 [BIM, bisindolylmaleimide-I]
- increase in the Vmax of [3H]DA uptake relative to control ([1]; 1 μM BIM): 98%

Compound: [Cl-].[Cl-].[Zn+2] [Zn^2+, ZnCl2]
- decrease in [3H]DA uptake compared to control ([2]; Zn2+ 10 μM): 25%
- decrease in [3H]DA uptake compared to control ([2]; Zn2+ 100 μM): 37%
- decrease in [3H]DA uptake compared to control ([3]; Zn2+ 10 μM): 53%
- decrease in [3H]DA uptake compared to control ([3]; Zn2+ 100 μM): 60%
- increase in [3H]WIN 35,428 binding [4]: 27%
- decrease in [3H]DA uptake compared to control ([5]; Zn2+ 10 μM, not significant): 10%
- decrease in [3H]DA uptake compared to control ([5]; Zn2+ 100 μM): 38%
- increase in [3H]WIN 35,428 binding ([6]; Zn2+ 10 μM): 80%
- increase in [3H]WIN 35,428 binding ([6]; Zn2+ 100 μM): 82%

Compound: CCCCCCCCCCCCCC(=O)O[C@@H]1[C@@H](C)[C@@]2(O)[C@@H](C=C(CO)C[C@]3(O)C(=O)C(C)=C[C@@H]23)[C@@H]2C(C)(C)[C@]12OC(C)=O [PMA, phorbol 12-myristate 13-acetate]
- decrease in the Vmax of [3H]DA uptake compared to control ([1]; 1 μM PMA, 37 °C): 40%
- decrease in the Vmax of [3H]DA uptake compared to control [7]: 60%
